Reference: US10654848B1, “Neutrophil inflammation inhibitor and uses thereof” (Chang Gung University of Science and Technology, priority 2018, dated 2020)
Structures can show the parent of a compound that is named as a salt.

What was measured:
human neutrophils [1] = assay: Elastase release in fMLF/CB-activated human neutrophils (MeO-Suc-Ala-Ala-Pro-Val-p-nitroanilide substrate); assay type: cell-based; conditions: Neutrophil, neutrophils in response to fMLF, Table 2, read-out: IC50 for suppressing elastase release
Protocol: (§1) Human neutrophils were obtained in lipopolysaccharide-free conditions by means of dextran sedimentation and Ficoll centrifugation.
Methoxysuccinyl-Ala-Ala-Pro-Val-p-nitroanilide was employed as the elastase substrate for the determination of elastase release. Briefly, after supplementation with Methoxysuccinyl-Ala-Ala-Pro-Val-p-nitroanilide (100 μM), neutrophils (6×10^5/mL) were equilibrated at 37° C. for 2 min and incubated with a candidate compound at various concentrations for 5 min. Cells were then activated with fMLF (0.1 μM) for 10 min in the pre-process of CB (0.5 μg/mL) for 3 min, and changes in absorbance at 405 nm were continuously monitored to evaluate elastase release. Results are expressed as the percentage of elastase release in the drug-free control group, DMSO.

BALB/c mice [2] = assay: Imiquimod-induced psoriasis-like skin inflammation in mice; assay type: in vivo, mouse; conditions: 20 mg/kg intraperitoneal, 30 min before 5% IMQ cream, daily for 7 days
Protocol: (§2) Male BALB/c mice aged 7-8 weeks were purchased from BioLASCO (Taipei, Taiwan) and maintained in a room with 12 hr light/dark cycles. Standard laboratory chow and water were available ad libitum. All animal experimental procedures were performed in accordance with guidelines and approved by the Institutional Animal Care and Use Committee of Chang Gung University.
Male BALB/c mice aged 7-8 weeks were used for the development of the imiquimod-induced psoriatic-like plaque model. The dorsal skin of the mice were shaved and received a daily topical dose of 62.5 mg of 5% imiquimod (IMQ) cream (Aldara, MEDA Pharma, Sweden) with or without a test compound (e.g., HKI-4971) treatment by intraperitoneal injection for 7 consecutive days.
Tissue samples were fixed in 10% neutral buffered formalin and embedding in paraffin blocks. Sections of the samples were prepared at 5 μm thickness and stained with hematoxylin and eosin (H&E). For immunohistochemistry staining, the sections were incubated with primary antibodies against Ly6g, MPO, and ki67 then the secondary antibody was applied for the detection of the primary antibody according to the manufacturer's instructions of the SuperPicture Polymer Detection Kit (Thermo Fisher, USA). Finally, the section slides were subsequently stained with DAB chromogen and counterstained with hematoxylin. […]

BALB/c mice [3] = assay: Liver and kidney function (ALT, AST, BUN, creatinine) in blood of imiquimod-induced mice; assay type: in vivo, mouse; conditions: blood samples, 20 mg/kg intraperitoneal, alone or with IMQ, 7 days; FIG. 3 (n=3)
Protocol: In this example, the effect of HKI-4971 (or compound 13) on the development of psoriasis was investigated using the well-established psoriasis animal model, in which imiquimod (IMQ) was used to induce psoriasis-like skin inflammation. Briefly, BALB/c mice are pre-treated by intraperitoneal injection of HKI-4971 (20 mg/kg) for 30 min before 5% IMQ cream was topically administered onto the back of the mice every day for 7 days. Then, skin samples taken from these animals were subjected to microscopy examination and immunohistochemistry staining, while blood samples were subjected to analysis for liver and kidney functions. Results are depicted in FIGS. 1 to 3.
Blood samples taken from IMQ- or IMQ+HKI-4971 treated animals were analyzed for the levels of alanine aminotransferase and aspartate transaminase, which were used as indicators for assessing liver function; and the levels of blood […] nitrogen (BUN) and creatinine (CRE), which were used as indicators for assessing the kidney function. Results are illustrated in FIG. 3.

BALB/c mice [4] = assay: LPS-induced acute lung injury (ALI) model in mice; assay type: in vivo, mouse; conditions: 20 mg/Kg intravenous 1 hr before intratracheal LPS, 5 hrs
Protocol: as §2
Mice were pre-treated with a candidate compound (e.g., HKI-4971), which was dissolved in 50 μl saline solution containing 10% DMSO and 20% Kolliphor EL (Sigma-Aldrich, USA), by intravenous injection. […]
Lung tissues were homogenized in PBS (50 Mm, pH 6.0) containing 0.5% (w/v) hexadecyltrimethylammonium bromide (HETAB) (Sigma-Aldrich, USA) by using the MagNA Lyser Instrument (Roche, Germany), and was further centrifuged at 12,000×g for 20 min at 4° C. to remove the insoluble material. The peroxidase activity was measured as the oxidation of o-Dianisidine dihydrochloride (Sigma-Aldrich, USA). […] The absorption was determined spectrophotometrically at 405 nm. […]
In this example, the Gram-negative bacterial endotoxin LPS induced ALI in mice was employed to mimic ARDS in human, and the effect of HKI-4971 was evaluated. […]

human neutrophils [5] = assay: Superoxide anion (O2•−) generation in fMLF/CB-activated human neutrophils (SOD-inhibitable ferricytochrome c reduction); assay type: cell-based; conditions: at 10 μM concentration; FMLP/CB-induced human neutrophils; mean ± S.E.M. (n = 3-5)
Protocol: as §1
O2^•− production was determined based on the SOD-inhibitable reduction of ferricytochrome c. Briefly, neutrophils (6×10^5/mL) were treated with a candidate compound at 37° C. at various concentrations (0.001 to 10 μM) for 5 min after being supplementing with 0.5 mg/mL ferricytochrome c and 1 mM Ca^2+. Cells were then activated with fMLF (0.1 μM) for 10 min in the pre-process of cytochalasin B (CB, 1 μg/mL) for 3 min. Changes in absorbance with the reduction of ferricytochrome c at 550 nm were continuously monitored in a double-beam, six-cell positioner spectrophotometer with constant stirring (Hitachi U-3010, Tokyo, Japan). Calculations were based on the differences in the reactions with and without SOD (100 U ml^−1) divided by the extinction coefficient for the reduction of ferricytochrome c (E=21.1 mM^−1/10 mm).

Structure (SMILES) | melting point [°C] | also measured
COc1ccc(Nc2nc3ccccc3c3onc(N)c23)cc1 (as salt: salt) [Compound 23, 4-(4-Methoxyanilino)isoxazolo[4,5-c]quinolin-3-amine] | 257 to 259 | –
COc1cc(Nc2nc3ccccc3c3onc(N)c23)cc(OC)c1OC (as salt: salt) [Compound 24, 4-(3,4,5-Trimethoxyanilino)isoxazolo[4,5-c]quinolin-3-amine] | 264 to 266 | –
CSc1ccc(Nc2nc3ccccc3c3onc(N)c23)cc1 (as salt: salt) [Compound 25, 4-(4-Methylthioanilino)isoxazolo[4,5-c]quinolin-3-amine] | 246 to 247 | –
CC(=O)c1cccc(Nc2nc3ccccc3c3onc(N)c23)c1 (as salt: salt) [Compound 26, 4-(3-Acetoylanilino)isoxazolo[4,5-c]quinolin-3-amine] | 249 to 250 | –
CC(=O)c1ccc(Nc2nc3ccccc3c3onc(N)c23)cc1 (as salt: salt) [Compound 27, 4-(4-Acetoylanilino)isoxazolo[4,5-c]quinolin-3-amine] | 255 to 257 | –
Nc1noc2c1c(Nc1ccccc1O)nc1ccccc12 (as salt: salt) [Compound 28, 4-(2-Hydroxyanilino)isoxazolo[4,5-c]quinolin-3-amine] | 240 to 241 | –
Nc1noc2c1c(Nc1ccc(O)cc1)nc1ccccc12 (as salt: salt) [Compound 29, 4-(4-Hydroxyanilino)isoxazolo[4,5-c]quinolin-3-amine] | 236 to 237 | –
Nc1noc2c1c(Nc1ccc(C(F)(F)F)cc1)nc1ccccc12 (as salt: salt) [Compound 30, 4-(4-Trifluoromethylanilino)isoxazolo[4,5-c]quinolin-3-amine] | 227 to 229 | –
Nc1noc2c1c(Nc1ccc(C(=O)O)cc1)nc1ccccc12 (as salt: salt) [Compound 31, 4-[(3-aminoisoxazolo[4,5-c]quinolin-4-yl)amino]benzoic acid] | 308 to 310 | –
Nc1noc2c1c(Nc1ccc(Cl)cc1)nc1ccccc12 (as salt: salt) [Compound 32, 4-(4-Chloroanilino)isoxazolo[4,5-c]quinolin-3-amine] | 268 to 269 | –
Cc1ccc(Nc2nc3ccccc3c3onc(N)c23)cc1 (as salt: salt) [Compound 33, 4-(4-Methylanilino)isoxazolo[4,5-c]quinolin-3-amine] | 173 to 175 | –
COc1ccccc1Nc1nc2ccccc2c2c1c(N)nn2C [Compound 5, 4-(2-Methoxyanilino)-1-methyl-1H-pyrazolo[4,3-c]quinolin-3-amine] | 229 to 230 | –
CC(=O)c1ccc(Nc2nc3ccccc3c3c2c(N)nn3C)cc1 [Compound 10, 4-(4-Acetoylanilino)-1-methyl-1H-pyrazolo[4,3-c]quinolin-3-amine] | 272 to 274 | –
Cn1nc(N)c2c(Nc3ccc(O)cc3)nc3ccccc3c21 [Compound 13, 4-(4-Hydroxyanilino)-1-methyl-1H-pyrazolo[4,3-c]quinolin-3-amine] | – | IC50 (human neutrophils [1]): 32 ± 17 nM; Severity or progression of IMQ-induced psoriasis (BALB/c mice [2]; FIG. 1): reduce the severity or progression; Immunostaining of skin: markers for cell proliferation (ki-67) and for neutrophils (Ly6g and MPO) (BALB/c mice [2]; FIG. 2): reduced; Liver function (alanine aminotransferase, aspartate transaminase) and kidney function (BUN, creatinine) (BALB/c mice [3]): did not result in significant damage; MPO activity in lung tissues (BALB/c mice [4]; FIG. 4(A) (n=3)): suppressed; LPS-induced neutrophil infiltration and lung injury (H&E, Ly6g and MPO staining of lung sections) (BALB/c mice [4]; FIG. 4(B)): significantly alleviated
CSc1ccc(Nc2nc3ccccc3c3onc(N)c23)cc1 [Compound 25, 4-(4-Methylthioanilino)isoxazolo[4,5-c]quinolin-3-amine] | – | Superoxide Anion Inhibition % (human neutrophils [5]): enhanced
Nc1noc2c1c(Nc1ccc(C(F)(F)F)cc1)nc1ccccc12 [Compound 30, 4-(4-Trifluoromethylanilino)isoxazolo[4,5-c]quinolin-3-amine] | – | Superoxide Anion Inhibition % (human neutrophils [5]): enhanced
Cc1ccc(Nc2nc3ccccc3c3onc(N)c23)cc1 [Compound 33, 4-(4-Methylanilino)isoxazolo[4,5-c]quinolin-3-amine] | – | Superoxide Anion Inhibition % (human neutrophils [5]): enhanced
